Results taken from patent US9580418B2, “Bicyclic aromatic carboxamide compounds useful as Pim kinase inhibitors” (Incyte Corporation, priority 2014, dated 2017).
pIC50: −log10 of the molar value.

Tests used:
Pim-1 = Pim-1 (Homo sapiens (Human), UniProt P11309); assay: Pim-1 kinase assay (Pim enzyme assays, Example A); format: biochemical; conditions: 1 mM ATP, BAD peptide substrate; read-out: PIM1 IC50
Method: (§1) Pim-1 and Pim-3 kinase assays-20 μL reactions were run in white 384 well polystyrene plates dotted with 0.8 μL compound/DMSO in the assay buffer (50 mM Tris, pH 7.5, 0.01% Tween-20, 5 mM mgCl2, 0.01% BSA, 5 mM DTT), containing 0.05 μM Biotin-labeled BAD peptide substrate (AnaSpec 62269), 1 mM ATP, and 2.5 pM (Pim-1, Invitrogen PV3503) or 1.25 pM (Pim-3, Millipore 14-738) enzyme for 1 h at 25° C. Reactions were stopped by addition of 10 μL STOP Buffer (150 mM Tris, pH=7.5, 150 mM NaCl, 75 mM EDTA, 0.01% Tween-20, 0.3% BSA,) supplemented with Phospho-Bad (Ser112) Antibody (Cell Signaling 9291) diluted 666-fold, and Streptavidin donor beads (PerkinElmer 6760002) along with Protein-A acceptor beads (PerkinElmer 6760137) at 15 μg/mL each. Supplementation of the STOP buffer with beads and stopping the reactions were done under reduced light. Prior to the stopping reactions STOP buffer with beads was preincubated for 1 h in the dark at room temperature. After stopping the reactions, plates were incubated for 1 h in the dark at room temperature before reading on a PHERAstar FS plate reader (BMG Labtech) under reduced light.

Pim-2 = Pim-2 (Homo sapiens (Human), UniProt Q9P1W9); assay: Pim-2 kinase assay (Pim enzyme assays, Example A); format: biochemical; conditions: 1 mM ATP, CREBtide peptide substrate; read-out: PIM2 IC50
Method: Pim-2 kinase assay-20 μL reactions were run in white 384 well polystyrene plates dotted with 0.8 μL compound/DMSO in the assay buffer (50 mM Tris, pH 7.5, 0.01% Tween-20, 5 mM mgCl2, 0.01% BSA, 5 mM DTT), containing 0.05 μM Fluorescein-labeled CREBtide peptide substrate (Invitrogen PV3508), 1 mM ATP, and 1 nM enzyme (Invitrogen PV3649) for 2 h at 25° C. Reactions were stopped by addition of 10 μL TR-FRET Dilution Buffer (Invitrogen PV3574) with 30 mM EDTA and 1.5 nM LanthaScreen Tb-CREB pSer133 antibody (Invitrogen PV3566). After 30 min. incubation at room temperature, plates were read on a PHERAstar FS plate reader (BMG Labtech).

pBAD in KMS.12.BM cells = assay: Pim pBAD signaling assay in KMS.12.BM cells (Example B); format: cell-based; conditions: Homo sapiens, 2.5 h incubation, pBAD ELISA
Method: KG-1A cells are purchased from ATCC (Manassas, Va.) and KMS.12.BM cells are purchased from NIBIO, JCRB cell bank (Tokyo, Japan) and maintained in the culture mediums recommended, RPMI, 10% FBS and IMDM 20% FBS (Mediatech, Manassas, Va.) respectively. To measure the pBAD inhibitory activity of the compounds, both cell lines are plated with the culture medium (1×10^6/well/100 μL for KG1A and 4×10^5 cells/well/in 100 μL for KMS12BM) into 96-well V bottom polypropylene plates (Matrix, Thermo Fisher, USA) and incubated 30 min. at 37° C. to normalize cell signaling from handling. Test compounds are added at an appropriate concentration range and further incubated for 2.5 h for KMS.12.BM cells and 4 h for KG1-A cells. Plates are centrifuged at 2000 RPM for 10 min. and supernatants aspirated. 100 μL lysis buffer with protease inhibitors (Cell Signaling Technologies, Danver, Mass., Sigma, St Louis Mo., EMD, USA) is added to the pellets, mixed well and set on ice for 30 min. Lysates are frozen overnight at −80° C. To measure the pBAD activity, a Cell Signaling ELISA kit (Cell Signaling Path Scan phosphor pBAD ELISA) is utilized. 50 μL of the lysate is tested per the ELISA protocol and the data analysis is performed by software on a SpectrMax5 plate reader (Molecular Devices, Sunnyvale, Calif.). IC50 determination is performed by fitting the curve of percent inhibition versus the log of the inhibitor concentration using the GraphPad Prism 5.0 software.

Pim-3 = Pim-3 (Homo sapiens (Human), UniProt Q86V86); assay: Pim-3 kinase assay (Pim enzyme assays, Example A); format: biochemical; conditions: 1 mM ATP, BAD peptide substrate; read-out: PIM3 IC50
Method: as §1

Sequence of Pim-2 (Q9P1W9 whole entry): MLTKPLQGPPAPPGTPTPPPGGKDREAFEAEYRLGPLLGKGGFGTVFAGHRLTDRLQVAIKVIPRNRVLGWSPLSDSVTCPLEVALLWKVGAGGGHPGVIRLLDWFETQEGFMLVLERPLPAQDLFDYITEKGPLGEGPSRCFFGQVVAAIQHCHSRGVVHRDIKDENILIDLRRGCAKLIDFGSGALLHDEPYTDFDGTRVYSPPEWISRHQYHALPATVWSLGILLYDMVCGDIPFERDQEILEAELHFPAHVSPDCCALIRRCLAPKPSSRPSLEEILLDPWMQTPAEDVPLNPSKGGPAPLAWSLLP
Sequence of Pim-1 (P11309 whole entry): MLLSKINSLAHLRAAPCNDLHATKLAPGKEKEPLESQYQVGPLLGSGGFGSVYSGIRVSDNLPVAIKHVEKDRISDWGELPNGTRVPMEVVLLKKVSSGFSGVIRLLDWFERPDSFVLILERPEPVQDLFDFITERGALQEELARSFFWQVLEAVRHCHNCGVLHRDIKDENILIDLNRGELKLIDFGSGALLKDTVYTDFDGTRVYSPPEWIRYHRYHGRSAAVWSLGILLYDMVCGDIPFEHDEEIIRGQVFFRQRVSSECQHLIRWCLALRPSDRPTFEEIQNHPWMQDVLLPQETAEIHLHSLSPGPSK

SMILES | pIC50 (Pim-1) | pIC50 (Pim-2) | pIC50 (pBAD in KMS.12.BM cells) | pIC50 (Pim-3)
C[C@H]1CN(c2ccncc2NC(=O)c2ccc3ccc(N4CCN(C)CC4)cc3n2)C[C@@H](N)[C@@H]1O [Example 18, N-{4-[(3R,4R,5S)-3-Amino-4-hydroxy-5-methylpiperidin-1-yl]pyridin-3-yl}-7-(4-methylpiperazin-1-yl)quinoline-2-carboxamide] | ≥ 8.00 | 6.00 to 7.00 | 6.60 to 7.30 | ≥ 8.00
Cn1cc(-c2cnc3ccc(C(=O)Nc4cnccc4N4C[C@@H](N)[C@H](O)[C@@H](C5CC5)C4)nc3c2)cn1 [Example 39, N-{4-[(3R,4R,5S)-3-Amino-5-cyclopropyl-4-hydroxypiperidin-1-yl]pyridin-3-yl}-7-(1-methyl-1H-pyrazol-4-yl)-1,5-naphthyridine-2-carboxamide] | ≥ 8.00 | ≥ 7.00 | 6.60 to 7.30 | ≥ 8.00
C[C@H]1CN(c2ccncc2NC(=O)c2ccc3ccc(C4CCOCC4)cc3n2)C[C@@H](N)[C@@H]1O [Example 11, N-{4-[(3R,4R,5S)-3-Amino-4-hydroxy-5-methylpiperidin-1-yl]pyridin-3-yl}-7-(tetrahydro-2H-pyran-4-yl)quinoline-2-carboxamide] | ≥ 8.00 | 6.00 to 7.00 | 6.60 to 7.30 | ≥ 8.00
C[C@@H]1C[C@H](N)CN(c2ccncc2NC(=O)c2ccc3ccc(N4CCN(C)CC4)cc3n2)C1 [Example 19, N-{4-[(3S,5R)-3-Amino-5-methylpiperidin-1-yl]pyridin-3-yl}-7-(4-methylpiperazin-1-yl)quinoline-2-carboxamide] | ≥ 8.00 | 6.00 to 7.00 | 5.70 to 6.60 | ≥ 8.00
C[C@@H]1C[C@H](N)CN(c2ccncc2NC(=O)c2ccc3ccc(N4CCCC4)cc3n2)C1 [Example 31, N-{4-[(3S,5R)-3-Amino-5-methylpiperidin-1-yl]pyridin-3-yl}-7-pyrrolidin-1-ylquinoline-2-carboxamide] | ≥ 8.00 | 6.00 to 7.00 | 6.60 to 7.30 | ≥ 8.00
CCN1CCN(c2ccc3ccc(C(=O)Nc4cnccc4N4C[C@@H](N)[C@H](O)[C@@H](C)C4)nc3c2)CC1=O [Example 22, N-{4-[(3R,4R,5S)-3-Amino-4-hydroxy-5-methylpiperidin-1-yl]pyridin-3-yl}-7-(4-ethyl-3-oxopiperazin-1-yl)quinoline-2-carboxamide] | ≥ 8.00 | ≥ 7.00 | ≥ 7.30 | ≥ 8.00
N#Cc1ccccc1-c1cnc2ccc(C(=O)Nc3cnccc3N3C[C@@H](N)C[C@@H](C(F)(F)F)C3)nc2c1 [Example 51, N-{4-[(3S,5R)-3-Amino-5-(trifluoromethyl)piperidin-1-yl]pyridin-3-yl}-7-(2-cyanophenyl)-1,5-naphthyridine-2-carboxamide] | ≥ 8.00 | ≥ 7.00 | ≥ 7.30 | ≥ 8.00
C[C@@H]1C[C@H](N)CN(c2ccncc2NC(=O)c2ccc3ncc(C4CCOCC4)cc3n2)C1 [Example 3, N-{4-[(3S,5R)-3-Amino-5-methylpiperidin-1-yl]pyridin-3-yl}-7-(tetrahydro-2H-pyran-4-yl)-1,5-naphthyridine-2-carboxamide] | ≥ 8.00 | 6.00 to 7.00 | ≥ 7.30 | ≥ 8.00
C[C@H]1CN(c2ccncc2NC(=O)c2ccc3ccc(-c4ccc(OC5CCOCC5)nc4)cc3n2)C[C@@H](N)[C@@H]1O [Example 52, N-{4-[(3R,4R,5S)-3-Amino-4-hydroxy-5-methylpiperidin-1-yl]pyridin-3-yl}-7-[6-(tetrahydro-2H-pyran-4-yloxy)pyridin-3-yl]quinoline-2-carboxamide] | ≥ 8.00 | ≥ 7.00 | 6.60 to 7.30 | ≥ 8.00
C[C@@H]1C[C@H](N)CN(c2ccncc2NC(=O)c2ccc3ccc(N4CCC(C#N)CC4)cc3n2)C1 [Example 17, N-{4-[(3S,5R)-3-Amino-5-methylpiperidin-1-yl]pyridin-3-yl}-7-(4-cyanopiperidin-1-yl)quinoline-2-carboxamide] | ≥ 8.00 | 6.00 to 7.00 | 6.60 to 7.30 | ≥ 8.00
N[C@@H]1CN(c2ccncc2NC(=O)c2ccc3ncc(-c4ccc(N5CCOCC5)nc4)cc3n2)C[C@H](C2CC2)[C@H]1O [Example 37, N-{4-[(3R,4R,5S)-3-Amino-5-cyclopropyl-4-hydroxypiperidin-1-yl]pyridin-3-yl}-7-(6-morpholin-4-ylpyridin-3-yl)-1,5-naphthyridine-2-carboxamide] | ≥ 8.00 | ≥ 7.00 | ≥ 7.30 | ≥ 8.00
C[C@@H]1C[C@H](N)CN(c2ccncc2NC(=O)c2ccc3ccc(N4CCC(N5CCOCC5)CC4)cc3n2)C1 [Example 27, N-{4-[(3S,5R)-3-Amino-5-methylpiperidin-1-yl]pyridin-3-yl}-7-(4-morpholin-4-ylpiperidin-1-yl)quinoline-2-carboxamide] | ≥ 8.00 | 6.00 to 7.00 | 6.60 to 7.30 | ≥ 8.00
C[C@@H]1C[C@H](N)CN(c2ccncc2NC(=O)c2ccc3ccc(-c4cnn(C)c4)cc3n2)C1 [Example 48, N-{4-[(3S,5R)-3-amino-5-methylpiperidin-1-yl]pyridin-3-yl}-7-(1-methyl-1H-pyrazol-4-yl)quinoline-2-carboxamide] | ≥ 8.00 | ≥ 7.00 | ≥ 7.30 | ≥ 8.00
N[C@@H]1CN(c2ccncc2NC(=O)c2ccc3ncc(N4CCC5(CCOCC5)CC4)cc3n2)C[C@H](C2CC2)[C@H]1O [Example 40, N-{4-[(3R,4R,5S)-3-Amino-5-cyclopropyl-4-hydroxypiperidin-1-yl]pyridin-3-yl}-7-(3-oxa-9-azaspiro[5.5]undec-9-yl)-1,5-naphthyridine-2-carboxamide] | ≥ 8.00 | 6.00 to 7.00 | – | ≥ 8.00
C[C@H]1CN(c2ccncc2NC(=O)c2ccc3ccc(N4CC(C)(C)C4)cc3n2)C[C@@H](N)[C@@H]1O [Example 32, N-{4-[(3R,4R,5S)-3-Amino-4-hydroxy-5-methylpiperidin-1-yl]pyridin-3-yl}-7-(3,3-dimethylazetidin-1-yl)quinoline-2-carboxamide] | ≥ 8.00 | 6.00 to 7.00 | – | ≥ 8.00
C[C@@H]1C[C@H](N)CN(c2ccncc2NC(=O)c2ccc3ccc(N4CC(C)(C)C4)cc3n2)C1 [Example 33, N-{4-[(3S,5R)-3-Amino-5-methylpiperidin-1-yl]pyridin-3-yl}-7-(3,3-dimethylazetidin-1-yl)quinoline-2-carboxamide] | ≥ 8.00 | 5.00 to 6.00 | – | ≥ 8.00
C[C@H]1CN(c2ccncc2NC(=O)c2ccc3ccc(N4CCC(C(F)(F)F)C4)cc3n2)C[C@@H](N)[C@@H]1O (stereo partly drawn) [Example 28, N-{4-[(3R,4R,5S)-3-Amino-4-hydroxy-5-methylpiperidin-1-yl]pyridin-3-yl}-7-[3-(trifluoromethyl)pyrrolidin-1-yl]quinoline-2-carboxamide] | ≥ 8.00 | 6.00 to 7.00 | – | ≥ 8.00
C[C@@H]1C[C@H](N)CN(c2ccncc2NC(=O)c2ccc3ccc(N4CCC(C(F)(F)F)C4)cc3n2)C1 (stereo partly drawn) [Example 29, N-{4-[(3S,5R)-3-Amino-5-methylpiperidin-1-yl]pyridin-3-yl}-7-[3-(trifluoromethyl)pyrrolidin-1-yl]quinoline-2-carboxamide] | ≥ 8.00 | 6.00 to 7.00 | – | ≥ 8.00
